Data on one sequence can be found in patent US12152248B2, “Membrane-penetrating peptides to enhanced transfection and compositions and methods for using same” (LIFE TECHNOLOGIES CORPORATION, priority 2013, dated 2024).

What all share (type): cell-based
In experiment [1] the test system is HeLa cells. Description: Effect of transfection reagent dosage on transfection efficiency and GFP expression (FIG. 3). Particulars: 96-well, 0.1-0.4 μl reagent, Peptide 1 with LIPOFECTAMINE® 3000 vs LIPOFECTAMINE® 2000 and LTX. The source says:
FIG. 3A is a graph comparing the relative transfection efficiency for an expression vector encoding GFP transfected into cultured HeLa cells using increasing dosages of three different commercially available lipid aggregate formulations, LIPOFECTAMINE® 2000 (open circles), LIPOFECTAMINE® LTX (open squares), and LIPOFECTAMINE® 3000 in combination with a peptide according to an embodiment (open triangles);
FIG. 3B is a graph comparing the intensity of GFP expression in HeLa cells transfected with an expression vector encoding GFP using increasing dosage of three different commercially available lipid aggregate formulations, LIPOFECTAMINE® 2000 (open circles), LIPOFECTAMINE® LTX (open squares), and LIPOFECTAMINE® 3000 in combination with a peptide according to an embodiment (open triangles);
HeLa cells were plated in 96-well plates and transfected with pcDNAEF1a/emGFP using 0.1 μl, 0.2 μl, 0.3 μl or 0.4 μl of LIPOFECTAMINE® 2000, LIPOFECTAMINE® LTX, or LIPOFECTAMINE® 3000 reagent in combination with Peptide 1 as described in Example 1. Transfection efficiency and relative protein expression as measured by […] was determine for each condition. […]

In experiment [2] the test system is HEK293, HeLa, COS-7, LNCaP, A549 and HepG2. Description: Comparison of transfection reagents, GFP fluorescence images (FIG. 2). The settings on record: panel of six cell lines; pcDNAEF1a/emGFP; 48 hrs; Peptide 1 used with LIPOFECTAMINE® 3000. As to the method:
Transfection complexes for transfecting DNA into cells in culture were prepared according to manufacturer protocol. LIPOFECTAMINE® 2000 and LIPIFECTAMINE® LTX were purchased from Life Technologies Corp. (Carlsbad, CA), FUGENE® HD was purchased from Promega Corp. (Fitchburg, WI), and X-TREMEGENE™ HP was purchased from Roche Diagnostics (Basel, Switzerland).
To prepare transfection complexes containing the non-naturally occurring peptides described above, Peptide 1 having the following sequence […] (SEQ ID NO. 89) was synthesized and provided as a dry powder. The dry powder was reconstituted in sterile ultrapure water to a final concentration of 4.35 mg/ml and allowed to fully dissolve. This stock peptide solution was set aside for use in the next step.
To prepare the lipid aggregate-DNA-peptide complexes, LIPOFECTAMINE® 3000 reagent (Life Technologies Corp., Carlsbad, CA) was obtained. […]
Following the incubation, the lipid-peptide-DNA complexes were added to cells that were seeded the previous day with fresh growth medium; for 96-well plates, 10 μl of the lipid-peptide-DNA was added to the cells, for 24-well plates, 50 μl of the lipid-peptide-DNA mixture was added to the cells, for 6-well plates, 250 μl of the lipid-peptide-DNA was added to the cells. The cells were incubated in the presence of the lipid-peptide-DNA for approximately 24-48 hrs, and analyzed. […]

The test system of experiment [3] is HeLa cells. Description: GFP transfection with lipid alone, peptide alone or both (FIG. 8). The settings on record: 96-well, 48 hrs, Peptide 1 in the presence of LIPOFECTAMINE® 3000, 0.05-0.5 μl. The source says:
FIG. 8 are bar graphs depicting relative transfection efficiency (upper graph, GFP+ as % of Single Cells Only) or relative expression level per cell (lower graph; Single cells Only Mean FL-1) of HeLa cells transfected with a GFP expression vector using the indicated doses (in μl) of LIPOFECTAMINE® 3000 alone (LF3K), LIPOFECTAMINE® 2000 (LF2K), a peptide according to an embodiment (Peptide 1) or LIPOFECTAMINE® 3000 in combination with a peptide according to an embodiment (LF3K+ Peptide 1);
HeLa cells were seeded onto 96-well plates and transfected for 48 hrs with […] of pcDNAEF1a/emGFP using either 0.05 μl, 0.1 μl, 0.2 μl, 0.3 μl, 0.4 μl, or 0.5 μl of LIPOFECTAMINE® 3000 Reagent alone (LF3K), LIPOFECTAMINE® 2000 (LF2K), Peptide 1 alone (Peptide 1), or LIPOFECTAMINE® 3000 in combination with Peptide 1 as described in Example 1 (LF3K+Peptide 1). Transfection efficiency and protein expression as measured by Fluorescence intensity (FL1-H) were determined. Results are depicted in FIG. 8.

As to “SRRARRSPRESGKKRKRKRGGGSGGGSGGGSRRRRRRRRRRR [Peptide 1, 89; MPP DPV10/6 fused to Linker 1 and cationic CP1]”, in the experiment with HeLa cells [1], the “relative expression of GFP (FIG. 3B)” value was “improves relative expression of GFP in the cells over the entire range of transfection reagent dosages tested” and the “relative transfection efficiency (FIG. 3A)” value is listed as “improves transfection efficiency of the cells over the entire range of transfection reagent dosages tested”. The “transfection efficiency (GFP expression, FIG. 2)” value in experiment [2] is on record as “improved transfection efficiency substantially”. The “transfection efficiency and protein expression (FIG. 8)” value in the experiment with HeLa cells [3] is “significantly enhances transfection efficiency and protein expression”.
